Reference: patent publication US5840684A, “Glycopeptide antibiotic derivatives” (Eli Lilly and Company, priority 1995, dated 1998)
In brackets after ≈: the same amount, converted by molar mass.

Key:
Entercoccus faecium 2041 = experiment: broth micro-dilution MIC; format: cell-based; details: Entercoccus faecium 2041
Procedure: (§1) The formula I compounds have in vitro and in vivo activity against Gram-positive pathogenic bacteria. The MIC's were determined using a standard broth micro-dilution assay.

[1] = system: Staphylococcus haemolyticus 105; experiment: broth micro-dilution MIC; format: cell-based
Procedure: as §1

Entercoccus faecium 180 = experiment: broth micro-dilution MIC; format: cell-based; details: Entercoccus faecium 180
Procedure: as §1

[2] = system: Staphylococcus haemolyticus 415; experiment: broth micro-dilution MIC; format: cell-based
Procedure: as §1

[3] = system: Enterococcus gallinarum 245; experiment: broth micro-dilution MIC; format: cell-based; details: Enterococcus gallinarum 245
Procedure: as §1

[4] = system: Staphylococcus epidermidis 270; experiment: broth micro-dilution MIC; format: cell-based
Procedure: as §1

[5] = system: Streptococcus pneumoniae P1; experiment: broth micro-dilution MIC; format: cell-based
Procedure: as §1

[6] = system: Staphylococcus aureus X778; experiment: broth micro-dilution MIC; format: cell-based
Procedure: (§2) The MIC's were determined using a standard broth micro-dilution assay.

[7] = system: Staphylococcus aureus 447; experiment: broth micro-dilution MIC; format: cell-based
Procedure: as §2

[8] = system: Staphylococcus aureus SA1199A; experiment: broth micro-dilution MIC; format: cell-based
Procedure: as §2

[9] = system: Staphylococcus aureus 489; experiment: broth micro-dilution MIC; format: cell-based
Procedure: as §2

Entercoccus faecium 276 = experiment: broth micro-dilution MIC; format: cell-based
Procedure: as §2

[10] = system: Staphylococcus aureus SA1199; experiment: broth micro-dilution MIC; format: cell-based
Procedure: as §2

[11] = system: Streptococcus pyogenes C203; experiment: broth micro-dilution MIC; format: cell-based
Procedure: as §2

[12] = system: Entercoccus faecium 180-1; experiment: broth micro-dilution MIC; format: cell-based
Procedure: as §2

Stapylococcus aureus = experiment: mouse protection, experimentally-induced infection; format: in vivo; details: mice infected with Stapylococcus aureus, two doses
Streptococcus pyogenes = experiment: mouse protection, experimentally-induced infection; format: in vivo; details: mice infected with Streptococcus pyogenes, two doses
[13] = system: Staphylococcus aureus S13E; format: cell-based
Procedure: as §2

[14] = system: vancomycin-resistant enterococci; experiment: broth micro-dilution, mean geometric MIC; format: cell-based, Enterococcus faecium and Enterococcus faecalis; details: enterococci, 24-hour incubation
Streptococcus pneumoniae = experiment: mouse protection, experimentally-induced infection; format: in vivo; details: mice infected with Streptococcus pneumoniae, two doses
[15] = system: vancomycin-susceptible enterococci; experiment: broth micro-dilution, mean geometric MIC; format: cell-based, Enterococcus faecium and Enterococcus faecalis; details: enterococci, 24-hour incubation
[16] = system: Staphylococcus aureus X400; experiment: broth micro-dilution MIC; format: cell-based
Procedure: as §2

[17] = system: Leuconostoc pseudomesenteroides; experiment: agar dilution MIC, lactic acid bacteria; format: cell-based; details: brain-heart infusion agar
Leuconostoc citreum = experiment: agar dilution MIC, lactic acid bacteria; format: cell-based; details: brain-heart infusion agar
Pediococcus acidilacti = experiment: agar dilution MIC, lactic acid bacteria; format: cell-based; details: Pediococcus acidilacti (mean of 10), brain-heart infusion agar
[18] = system: Haemophilus influenzae RD; experiment: broth micro-dilution MIC; format: cell-based; details: Haemophilus influenzae RD
Procedure: as §1

[19] = system: Staphylococcus aureus 491; experiment: broth micro-dilution MIC; format: cell-based
Procedure: as §2

[20] = system: Staphylococcus aureus 446; experiment: broth micro-dilution MIC; format: cell-based
Procedure: as §2

[21] = system: Staphylococcus aureus SA1199B; format: cell-based
Procedure: as §2

SMILES	MIC (Entercoccus faecium 2041)	MIC [1]	MIC (Entercoccus faecium 180)	MIC [2]	MIC [3]	MIC [4]	MIC [5]	MIC [6]	MIC [7]	MIC [8]	MIC [9]	MIC (Entercoccus faecium 276)	MIC [10]	MIC [11]	MIC [12]	ED50 (Stapylococcus aureus)	ED50 (Streptococcus pyogenes)	MIC [13]	mean geometric MIC, Vancomycin Resistant Strains [14]	mean geometric MIC, Vancomycin Sensitive Strains [15]	also measured
CNC(CC(C)C)C(=O)NC1C(=O)NC(CC(N)=O)C(=O)NC2C(=O)NC3C(=O)NC(C(=O)NC(C(=O)O)c4cc(O)cc(O)c4-c4cc3ccc4O)C(OC3CC(C)(N)C(O)C(C)O3)c3ccc(c(Cl)c3)Oc3cc2cc(c3OC2OC(CO)C(O)C(O)C2OC2CC(C)(NCc3ccc(Oc4ccc([N+](=O)[O-])cc4)cc3)C(O)C(C)O2)Oc2ccc(cc2Cl)C1O (centres unmarked) [Compound 57]	≤ 0.06 µg/mL	8 µg/mL (≈ 4.4 µM)	0.5 µg/mL (≈ 0.275 µM)	1 µg/mL (≈ 0.55 µM)	2 µg/mL (≈ 1.1 µM)	0.5 µg/mL (≈ 0.275 µM)	≤ 0.06 µg/mL	≤ 0.06 µg/mL	0.5 µg/mL (≈ 0.275 µM)	≤ 0.06 µg/mL	0.5 µg/mL (≈ 0.275 µM)	0.5 µg/mL (≈ 0.275 µM)	≤ 0.06 µg/mL	≤ 0.06 µg/mL	≤ 0.06 µg/mL	0.041 mg/kg/2	0.054 mg/kg/2	≤ 0.06 µg/mL	0.35 µg/mL	0.041 µg/mL	ED50 (Streptococcus pneumoniae): 0.046 mg/kg/2
CNC(CC(C)C)C(=O)NC1C(=O)NC(CC(N)=O)C(=O)NC2C(=O)NC3C(=O)NC(C(=O)NC(C(=O)O)c4cc(O)cc(O)c4-c4cc3ccc4O)C(OC3CC(C)(N)C(O)C(C)O3)c3ccc(c(Cl)c3)Oc3cc2cc(c3OC2OC(CO)C(O)C(O)C2OC2CC(C)(NCc3cccc4c3OCO4)C(O)C(C)O2)Oc2ccc(cc2Cl)C1O (centres unmarked) [Compound 58]	0.5 µg/mL (≈ 0.29 µM)	4 µg/mL (≈ 2.32 µM)	8 µg/mL (≈ 4.63 µM)	8 µg/mL (≈ 4.63 µM)	0.4 µg/mL (≈ 0.232 µM)	4 µg/mL (≈ 2.32 µM)	≤ 0.06 µg/mL	≤ 0.06 µg/mL	1 µg/mL (≈ 0.579 µM)	≤ 0.06 µg/mL	≤ 0.06 µg/mL	0.5 µg/mL (≈ 0.29 µM)	≤ 0.06 µg/mL	≤ 0.06 µg/mL				≤ 0.06 µg/mL	5.7 µg/mL	0.76 µg/mL	MIC [16]: ≤ 0.06 µg/mL; MIC [17]: 128 µg/mL (≈ 74.1 µM); MIC (Leuconostoc citreum): 128 µg/mL (≈ 74.1 µM); MIC (Pediococcus acidilacti): 55 µg/mL (≈ 31.9 µM)
CNC(CC(C)C)C(=O)NC1C(=O)NC(CC(N)=O)C(=O)NC2C(=O)NC3C(=O)NC(C(=O)NC(C(=O)O)c4cc(O)cc(O)c4-c4cc3ccc4O)C(OC3CC(C)(N)C(O)C(C)O3)c3ccc(c(Cl)c3)Oc3cc2cc(c3OC2OC(CO)C(O)C(O)C2OC2CC(C)(NCc3ccc(-c4ccc(Cl)cc4)cc3)C(O)C(C)O2)Oc2ccc(cc2Cl)C1O (centres unmarked) [Compound 229, 4-[4-chlorophenyl]benzyl-A82846B]	≤ 0.06 µg/mL	1 µg/mL (≈ 0.558 µM)	≤ 0.06 µg/mL	2 µg/mL (≈ 1.12 µM)	2 µg/mL (≈ 1.12 µM)	0.5 µg/mL (≈ 0.279 µM)	≤ 0.06 µg/mL	1 µg/mL (≈ 0.558 µM)	2 µg/mL (≈ 1.12 µM)	≤ 0.06 µg/mL	1 µg/mL (≈ 0.558 µM)	0.25 µg/mL (≈ 0.139 µM)	1 µg/mL (≈ 0.558 µM)	≤ 0.06 µg/mL	≤ 0.06 µg/mL		0.058 mg/kg/2	1 µg/mL (≈ 0.558 µM)	0.50 µg/mL	0.024 µg/mL	MIC [18]: 2 µg/mL (≈ 1.12 µM); MIC [19]: 0.5 µg/mL (≈ 0.279 µM); MIC [20]: 1 µg/mL (≈ 0.558 µM); MIC [16]: 1 µg/mL (≈ 0.558 µM); MIC [21]: 1 µg/mL (≈ 0.558 µM); ED50 (Streptococcus pneumoniae): 0.078 mg/kg/2
CN[C@@H](CC(C)C)C(=O)N[C@H]1C(=O)N[C@H](CC(N)=O)C(=O)N[C@H]2C(=O)N[C@H]3C(=O)N[C@@H](C(=O)NC(C(=O)O)c4cc(O)cc(O)c4-c4cc3ccc4O)[C@@H](O[C@H]3C[C@](C)(N)[C@H](O)[C@@H](C)O3)c3ccc(cc3)Oc3cc2cc(c3O[C@H]2O[C@@H](CO)[C@@H](O)[C@H](O)[C@@H]2O[C@H]2C[C@](C)(N)[C@H](O)[C@@H](C)O2)Oc2ccc(cc2)[C@@H]1O (some centres unmarked) [Compound A82846C, A82846C, reference compound]	0.5 µg/mL (≈ 0.328 µM)	1 µg/mL (≈ 0.656 µM)	16 µg/mL (≈ 10.5 µM)	2 µg/mL (≈ 1.31 µM)	0.5 µg/mL (≈ 0.328 µM)		≤ .06 µg/mL	0.5 µg/mL (≈ 0.328 µM)	0.5 µg/mL (≈ 0.328 µM)		≤ .06 µg/mL	0.5 µg/mL (≈ 0.328 µM)				1.3 mg/kg/2	1.5 mg/kg/2		353 µg/mL		MIC [19]: 1 µg/mL (≈ 0.656 µM); MIC [20]: 0.5 µg/mL (≈ 0.328 µM); MIC [21]: ≤ .06 µg/mL
